The nature of series [1]: Lipophilicity, log D of the compound. The format is physicochemical. The conditions noted are these: octanol/water.
The target of series [2] is T1, C-C chemokine receptor type 1 (Homo sapiens) (UniProt P32246).
T1 sequence (whole entry): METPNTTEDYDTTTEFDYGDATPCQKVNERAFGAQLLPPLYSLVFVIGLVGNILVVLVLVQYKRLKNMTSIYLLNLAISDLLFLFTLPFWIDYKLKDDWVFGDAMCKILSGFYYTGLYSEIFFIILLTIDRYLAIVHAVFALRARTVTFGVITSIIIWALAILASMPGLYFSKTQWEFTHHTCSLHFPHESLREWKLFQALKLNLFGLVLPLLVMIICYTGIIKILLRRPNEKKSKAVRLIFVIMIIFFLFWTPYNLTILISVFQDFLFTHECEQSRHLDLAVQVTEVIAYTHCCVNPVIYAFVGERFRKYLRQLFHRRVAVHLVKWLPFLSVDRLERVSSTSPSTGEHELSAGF
As to the kind of experiment: Antagonist activity at CCR1 (unknown origin) at 10 uM. Format: functional.

A short description of series [3]: Terminal trough concentration in OVA-induced Brown Norway rat plasma at 15 umol/kg, po bid measured 12 hrs post last dose. The conditions noted are these: read-out: Cmin. The format is ADME, organism-based.
A short description of series [4]: Antagonist activity at rat CCR4.
The target of series [5] is T2, C-C chemokine receptor type 4 (Homo sapiens, UniProt P51679).
T2 sequence (P51679 whole entry): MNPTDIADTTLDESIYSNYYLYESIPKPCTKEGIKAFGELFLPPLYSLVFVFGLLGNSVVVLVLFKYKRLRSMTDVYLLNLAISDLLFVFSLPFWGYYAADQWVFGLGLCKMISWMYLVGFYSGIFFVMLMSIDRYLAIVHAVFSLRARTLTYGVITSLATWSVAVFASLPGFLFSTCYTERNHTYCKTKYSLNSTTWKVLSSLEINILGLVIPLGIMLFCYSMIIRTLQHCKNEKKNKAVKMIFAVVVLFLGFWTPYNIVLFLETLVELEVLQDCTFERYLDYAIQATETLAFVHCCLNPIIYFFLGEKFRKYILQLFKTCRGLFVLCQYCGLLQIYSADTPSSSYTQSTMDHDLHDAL
The series can be described thus: Antagonist activity at recombinant human CCR4 expressed in CHO-K1 cells assessed as inhibition of CCL22 induced Ca2+ mobilization after 2 hrs by FMAT based fluorescence assay. Format: functional, cell-based.

Series [6] is described as follows: Lipophilicity, log P of the compound. Format: physicochemical. The conditions noted are these: octanol/water.
The target in series [7] is C-C chemokine receptor type 5 (Homo sapiens) (UniProt P51681). As to the kind of experiment: Antagonist activity at CCR5 (unknown origin) at 10 uM. The format is functional.
The target in series [8] is T3, C-C chemokine receptor type 7 (Homo sapiens) (UniProt P32248).
T3 sequence (whole entry): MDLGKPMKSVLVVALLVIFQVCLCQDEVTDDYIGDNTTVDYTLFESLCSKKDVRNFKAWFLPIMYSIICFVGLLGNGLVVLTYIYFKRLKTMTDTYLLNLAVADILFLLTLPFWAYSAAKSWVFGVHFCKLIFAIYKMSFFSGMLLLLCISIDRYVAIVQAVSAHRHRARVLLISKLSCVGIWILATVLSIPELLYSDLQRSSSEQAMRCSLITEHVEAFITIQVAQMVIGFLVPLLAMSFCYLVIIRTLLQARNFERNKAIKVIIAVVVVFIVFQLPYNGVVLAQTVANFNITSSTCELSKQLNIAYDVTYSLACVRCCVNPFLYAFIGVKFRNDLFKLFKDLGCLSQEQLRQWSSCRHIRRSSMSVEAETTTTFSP
The series can be described thus: Antagonist activity at CCR7 (unknown origin) at 10 uM. The format is functional.

The nature of series [9]: Terminal trough concentration in OVA-induced Brown Norway rat plasma at 3 umol/kg, po bid measured 12 hrs post last dose. The format is ADME, organism-based. The conditions noted are these: read-out: Cmin.
Series [10] is described as follows: Oral bioavailability in rat at 9 umol/kg. The conditions noted are these: in vivo. Format: ADME, organism-based.
The test system of a further series is Rattus norvegicus. The series can be described thus: Antiinflammatory activity in OVA-induced Brown Norway rat lung assessed as reduction in alveolitis administered po bid 1 hr prior to antigen challenge and every 12 hrs prior to termination 96 hrs post challenge by histopathological analysis. Format: functional, organism-based.
A short description of series [11]: Protein binding in human plasma. The format is ADME, cell-free. The conditions noted are these: read-out: PPB (converted).
Series [12] is described as follows: Oral bioavailability in dog at 9 umol/kg. The format is ADME, organism-based, Canis lupus familiaris. The conditions noted are these: in vivo.
The nature of series [13]: Clearance in rat at 9 umol/kg, po or 3 umol/kg, iv. Format: ADME, organism-based. The conditions noted are these: in vivo.

Calls of active or inactive are those of the source. The calls are words filed in the database; no cut-off is given here.

C-C chemokine receptor type 5 (Homo sapiens), sequence (P51681 whole entry, looked up): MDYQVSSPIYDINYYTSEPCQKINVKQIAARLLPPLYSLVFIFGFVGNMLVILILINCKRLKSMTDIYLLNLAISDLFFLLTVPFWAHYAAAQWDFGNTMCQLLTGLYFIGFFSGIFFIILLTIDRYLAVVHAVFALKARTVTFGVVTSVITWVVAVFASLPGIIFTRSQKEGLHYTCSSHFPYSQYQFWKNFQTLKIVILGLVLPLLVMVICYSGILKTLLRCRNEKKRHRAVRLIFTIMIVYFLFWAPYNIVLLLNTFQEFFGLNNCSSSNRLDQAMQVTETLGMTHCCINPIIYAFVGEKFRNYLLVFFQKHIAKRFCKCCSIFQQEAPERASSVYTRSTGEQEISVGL

In turn, `COc1nccnc1NS(=O)(=O)c1cccc(Cl)c1Cl` displayed a logD in series [1] of 0.35. The outcome in series [2], in series [7] and in [8] was inactive. Besides, the concentration at 12 h in series [3] came to 490 nM; in [9], 33 nM. The same molecule had a pIC50 in series [4] of 8. Also, in series [5], the IC50 was 15.8 nM. In [6], this molecule returned a logP of 2.5. For the same molecule, the bioavailability in series [10] and in [12] was 100% each time. For the same molecule, the Activity result in the series with Rattus norvegicus is “Dose-dependent effect”. Besides, in [11], the fraction unbound was 0.011. Moreover, in series [13], the clearance came to 2 mL/min/kg.
